We go through ten compounds from ChEMBL document CHEMBL1201862, “PubChem BioAssay data set” (2004).

Experiment in all cases: NCI anticancer screen, dose series, 48 h
Experiment [1] relates to A549.
Experiment [2] relates to CAKI-1.
Experiment [3] deals with CCRF-CEM.
In experiment [4] the test system is COLO 205.
For experiment [5], the system named is EKVX.
For experiment [6], the system named is HCC 2998.
Experiment [7] has as its system HL-60.
The test system of experiment [8] is HOP-62.
The test system of experiment [9] is HOP-92.
In experiment [10] the test system is HT-29.
Experiment [11] deals with IGROV-1.
Experiment [12] deals with LOX IMVI.
Experiment [13] concerns MCF7.
The test system of experiment [14] is NCI-H522.
Experiment [15] concerns OVCAR-4.
Experiment [16] concerns RXF 393.
The subject of experiment [17] is SF-295.
Experiment [18] deals with SNB-19.
Experiment [19] has as its system OVCAR-8.
In experiment [20] the test system is SW-620.

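Results reflect a 48-hour exposure of cells in 96-well plates to compound at five concentrations. GI50 is the concentration that inhibits growth by half.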 Calls of active or inactive are those of the source. No stated cut-off is given here; in the data, active = GI50 up to about 1.1 µM and inactive = higher.

`O=C/C(=C1/C=Cc2cc([N+](=O)[O-])ccc2S1)c1ccccc1`: the GI50 in experiment [1], in [2], in experiment [3], in experiment [4], in [5] and in [6] was > 100 µM (inactive) throughout. For the same compound, the GI50 in [7], in experiment [8], in experiment [9], in experiment [10], in experiment [11] and in experiment [12] was > 100 µM (inactive) throughout. Besides, the GI50 in [13], in experiment [14], in experiment [15], in experiment [16], in experiment [17] and in [18] was > 100 µM (inactive) in each case.
Consider `CCOC(=O)C(=Cn1c(=S)[nH]c2ccc([N+](=O)[O-])cc21)C(=O)OCC`, for which the GI50 in [1], in experiment [2], in experiment [3], in experiment [4], in experiment [5] and in experiment [6] was > 100 µM (inactive) in each case. The GI50 in [7], in experiment [8], in experiment [9], in experiment [10], in [11] and in experiment [12] was > 100 µM (inactive) throughout. For the same compound, the GI50 in experiment [13], in [14], in experiment [15], in experiment [19], in experiment [16] and in experiment [17] was > 100 µM (inactive) each time. In addition, the GI50 in experiment [18] and in [20] was > 100 µM (inactive) in each case.
As for `CC1=NN(C(=O)c2ccccc2O)C(=O)/C1=C/c1c(O)ccc2ccccc12`, the GI50 in [1] is 2.06 µM (inactive); in experiment [2] it was 1.32 µM (inactive); in [3], 0.312 µM (active); in [4] it was 2.9 µM (inactive); in [5], 0.713 µM (active); in experiment [6] it was 12.9 µM (inactive). The GI50 was 0.299 µM (active) in experiment [7]; 0.944 µM (active) in [8]; 1.96 µM (inactive) in experiment [9]; 10.2 µM (inactive) in [10]; 1.22 µM (inactive) in experiment [11]; 0.625 µM (active) in experiment [12]. Further, the GI50 in experiment [13] is 3.31 µM (inactive); in [14] it was 0.839 µM (active); in experiment [15] it was 0.468 µM (active); in experiment [19], 1.01 µM (active); in experiment [16] it was 0.787 µM (active); in experiment [17], 2.23 µM (inactive). Besides, the GI50 in [18] is 3.26 µM (inactive); in [20], 0.863 µM (active).
As to `COc1ccc2[nH]c3c(C)c4ccncc4c(C)c3c2c1`, the GI50 in experiment [1] was 0.264 µM (active); in [2], 0.601 µM (active); in experiment [3], 0.0982 µM (active); in experiment [4], 0.19 µM (active); in experiment [5] it was 1.01 µM (active); in [6], 1.92 µM (inactive). The GI50 is 0.532 µM (active) in [7]; 0.946 µM (active) in [8]; 0.23 µM (active) in experiment [9]; 0.212 µM (active) in experiment [10]; 0.289 µM (active) in [11]; 0.251 µM (active) in experiment [12]. The GI50 is 0.359 µM (active) in [13]; 0.681 µM (active) in [14]; 0.258 µM (active) in experiment [15]; 0.111 µM (active) in [19]; 0.1 µM (active) in [16]; 0.521 µM (active) in experiment [17]. For the same compound, the GI50 in [18] is 0.532 µM (active); in experiment [20] it was 0.0918 µM (active).
Consider `Cc1c(Cl)c(=O)oc2cc(OCC(=O)c3ccccc3)ccc12`, for which the GI50 in experiment [1], in experiment [2], in experiment [3], in [4], in experiment [5] and in experiment [6] was > 100 µM (inactive) each time. Further, the GI50 in [7] was > 100 µM (inactive); in [8] it was 31.3 µM (inactive); in experiment [9], 97.5 µM (inactive); in [10], > 100 µM (inactive); in experiment [11], > 100 µM (inactive); in [13], > 100 µM (inactive). Further, the GI50 in experiment [14], in experiment [15], in experiment [19], in experiment [16], in experiment [17] and in [18] was > 100 µM (inactive) in each case. Further, the GI50 in experiment [20] is > 100 µM (inactive).
Consider `COc1ccc(C2c3cc4c(cc3OC(NCCO)C2C)OCO4)cc1` (stereo unspecified), for which the GI50 in [1] is 21.7 µM (inactive); in experiment [2], 23.5 µM (inactive); in experiment [3], 21.2 µM (inactive); in experiment [4], 18.4 µM (inactive); in experiment [5], 32 µM (inactive); in experiment [6], 26.5 µM (inactive). Besides, the GI50 was 22.6 µM (inactive) in experiment [7]; 29.8 µM (inactive) in experiment [8]; 34.3 µM (inactive) in experiment [9]; 20 µM (inactive) in [10]; 28.8 µM (inactive) in experiment [11]; 23.3 µM (inactive) in experiment [12]. Besides, the GI50 in [13] is 27.3 µM (inactive); in experiment [14] it was 16.6 µM (inactive); in experiment [16] it was 23.2 µM (inactive); in [17], 27.9 µM (inactive); in [18], 28 µM (inactive); in experiment [20] it was 34.4 µM (inactive).
Turning to `O=[N+]([O-])c1cccc2nccc(NCC(O)CO)c12` (stereo unspecified), the GI50 in experiment [1] was 15.1 µM (inactive); in experiment [2], 16 µM (inactive); in experiment [3], 13.3 µM (inactive); in [4], 15 µM (inactive); in experiment [5] it was 14.5 µM (inactive); in experiment [6], 13.1 µM (inactive). Moreover, the GI50 was 1.36 µM (inactive) in [7]; 17.6 µM (inactive) in experiment [8]; 20.6 µM (inactive) in [9]; 14.7 µM (inactive) in experiment [10]; 16.1 µM (inactive) in experiment [11]; 21.7 µM (inactive) in [12]. For the same compound, the GI50 in experiment [13] was 13.9 µM (inactive); in experiment [14], 7.01 µM (inactive); in experiment [15], 18.5 µM (inactive); in experiment [19], 11.6 µM (inactive); in experiment [16], 11.6 µM (inactive); in experiment [17] it was 21 µM (inactive). Besides, the GI50 in experiment [20] is 14.5 µM (inactive).
With `O=C1NC(=O)C(CCO)(c2ccccc2)C(=O)N1`, the GI50 in [1], in [3], in experiment [4], in experiment [5], in [6] and in [7] was > 100 µM (inactive) in each case. The GI50 is > 100 µM (inactive) in [8]; > 100 µM (inactive) in [9]; > 100 µM (inactive) in experiment [10]; > 100 µM (inactive) in experiment [11]; > 31.6 µM (inactive) in experiment [12]; > 100 µM (inactive) in [13]. Also, the GI50 in [14], in experiment [15], in experiment [19], in [16], in experiment [17] and in experiment [18] was > 100 µM (inactive) each time. For the same compound, the GI50 in experiment [20] is > 100 µM (inactive).
With `Cc1nn(C)c2c1C(=O)N(C)CC(=O)N2C`, the GI50 in [1], in experiment [2], in experiment [3], in experiment [4], in experiment [5] and in [6] was > 100 µM (inactive) throughout. For the same compound, the GI50 in [7], in [8], in experiment [9], in [10], in [11] and in experiment [13] was > 100 µM (inactive) in each case. The GI50 in experiment [14], in experiment [15], in [19], in experiment [16], in [17] and in experiment [18] was > 100 µM (inactive) each time. The GI50 in [20] is > 100 µM (inactive).
Take `CN(C)c1ccc(C2CC(=O)CC(c3ccc(N(C)C)cc3)C23C(=O)NC(=O)NC3=O)cc1` (stereo unspecified): the GI50 in [2], in experiment [3], in experiment [4], in experiment [5], in [6] and in experiment [7] was > 25 µM (inactive) each time. For the same compound, the GI50 in [8] was 18.2 µM (inactive); in experiment [9], 5.18 µM (inactive); in experiment [10] it was > 25 µM (inactive); in experiment [11] it was > 25 µM (inactive); in [12], > 25 µM (inactive); in [13], > 25 µM (inactive). In addition, the GI50 in experiment [14] is 17.6 µM (inactive); in experiment [15] it was > 25 µM (inactive); in experiment [19], 14.4 µM (inactive); in experiment [16], 15.8 µM (inactive); in [17] it was 19.8 µM (inactive); in experiment [18], 9.14 µM (inactive). Moreover, in experiment [20], the GI50 is > 25 µM (inactive).
